Here are results for ten compounds from patent US20070207104A1, “Antimicrobial esters” (priority 2006, published 2007).

Read-outs that look alike come from different tables or passages of the source.

Series [1] has as its system Gram-positive bacteria: Staphylococcus aureus, and Bacillus subtilis. Kind of series: Minimal inhibitory concentration, agar dilution (Mueller-Hinton), Gram-positive bacteria. It counts as cell-based. The settings on record: for Minimum Inhibitory Concentration (MIC): Gram Positive Bacteria Staphylococcus aureus, Staphlyococcus epidermidis, Bacillus subtilis; for visible growth on agar plates: Gram Positive Organisms, concentration 0.3 %. As to the method: Mueller-Hinton is the agar medium used in these studies. Dilutions of materials to be tested were made directly into warm molten agar as described below to achieve the final concentration range (0-6%) shown in the Tables below.
(§1) Agar was prepared as recommended by the manufacturer. Sterilized agar was allowed to cool to 50° C. in a water bath and dispensing an appropriate amount into sterile containers. The agent being tested was added to the agar and thoroughly mixed. Plates were then poured and allowed to solidify at room temperature. All plates were used immediately and not stored.
A standard inoculating loop was used to deliver and spread the inoculum on the plates. Plates were allowed to dry at room temperature before inverting and incubation. Bacterial plates were incubated at 35° C. for 48 hours while fungal plates were incubated at 25° C. for 72 hours. All plates were visually inspected immediately following incubation and the results recorded.
(§2) The organisms tested were the following: Gram-positive bacteria: Staphylococcus aureus, and Bacillus subtilis; Gram-negative bacteria: Escherichia coli and Pseudomonas aeruginosa; and Fungi: Candida albicans, Asperillus niger and Penicillium notatum.
The results below are expressed as the concentration (%) of agent corresponding to the MIC for each group of organisms tested.
Background: In agar dilution, organisms are placed on agar that contains the substance at set levels.

Series [2] concerns Fungi: Candida albicans, Asperillus niger and Penicillium notatum. Kind of series: Minimal inhibitory concentration, agar dilution (Mueller-Hinton), fungi. It counts as cell-based. As to the method:
(§3) The minimal inhibitory concentration of the composition was determined based on methods as described in the United States Pharmacopiea, National Formulary (“USP, NF”), NF 18, 1995, Microbial Assays and Journal of Applied Microbiology 89(2): 275-279 by testing microorganisms for their ability to produce visible growth on a series of agar plates containing dilutions of the composition. Mueller-Hinton is the agar medium used in these studies. Dilutions of materials to be tested were made directly into warm molten agar as described below to achieve the final concentration range (0-6%) shown in the Tables below.
as §1
(§4) Broth cultures (24 hours) were adjusted photometrically to give 10^7 CFU/ml (colony forming units/ml) and the plates were inoculated within 30 minutes of standardizing the inoculum. A standard inoculating loop was used to deliver and spread the inoculum on the plates. Plates were allowed to dry at room temperature before inverting and incubation. Bacterial plates were incubated at 35° C. for 48 hours while fungal plates were incubated at 25° C. for 72 hours. All plates were visually inspected immediately following incubation and the results recorded.
as §2
(§5) The effects of the structure of the polyhydric alcohol, the structure of the carboxylic acid and the extent of alkoxylation on antimicrobial activity were determined using the MIC assay as described in Example 1. The results below are expressed as the concentration (%) of agent corresponding to the MIC for each group of organisms tested.

Series [3] concerns Gram-negative bacteria: Escherichia coli and Pseudomonas aeruginosa. Put plainly: Minimal inhibitory concentration, agar dilution (Mueller-Hinton), Gram-negative bacteria. Type of series: cell-based. Conditions: for Minimum Inhibitory Concentration (MIC): Gram Negative Bacteria Escherichia coli, Pseudomonas aeruginosa; for visible growth on agar plates: Gram Negative Organisms, concentration 0.3 %. As to the method: as §3, §1, §4, §2, §5

Series [4] has as its system Gram-positive and Gram-negative organisms as well as fungi. Put plainly: Antimicrobial activity in the MIC assay, all groups of organisms tested. Type of series: cell-based. As to the method:
as §3, §1
Broth cultures (24 hours) were adjusted photometrically to give 10^7 CFU/ml (colony forming units/ml) and the plates were inoculated within 30 minutes of standardizing the inoculum. A standard inoculating loop was used to deliver and spread the inoculum on the plates. Plates were allowed to dry at room temperature before inverting and incubation. Bacterial plates were incubated at 35° C. for 48 hours while fungal plates were incubated at 25° C. for 72 hours. All plates were visually inspected immediately following incubation and the results recorded. […]
as §5

Series [5] can be described thus: Safety testing: neat material on forearm of human volunteers under occlusive conditions for 48 hours. Type of series: in vivo. Set-up: key to dermal response score (6-point scale): 0=No evidence of any effect; +=Barely perceptible (Minimal, faint, uniform or spotty erythema); 1=Mild (Pink, uniform erythema covering most of the contact site); 2=Moderate (Pink-red erythema uniform in the entire contact site); 3=Marked (Bright re erythema with/without petechiae or papules); 4=Severe (Deep red erythema with/without vesiculation or weeping). As to the method: The safety of G-18-O was tested using the neat (undiluted) material applied to the forearm of 51 human volunteers under occlusive conditions for 48 hours. These conditions are particularly aggressive, especially when compared with those in the prior art, where data on safety, if disclosed at all, is generally anecdotal using low concentrations of the agent. The dermal responses for G-18-O were scored by expert evaluators under clinical conditions according to the following 6-point scale: • 0=No evidence of any effect; • +=Barely perceptible (Minimal, faint, uniform or spotty erythema); • 1=Mild (Pink, uniform erythema covering most of the contact site); • 2=Moderate (Pink-red erythema uniform in the entire contact site); • 3=Marked (Bright re erythema with/without petechiae or papules); and • 4=Severe (Deep red erythema with/without vesiculation or weeping).

Series [6] in a line: Solubility in water / oil. Type of series: physicochemical.
Series [7] can be described thus: HLB value. It counts as physicochemical.

For Glycereth-7 Ethylhexanoate, the “Minimum Inhibitory Concentration (MIC)” value in series [1] is 3%; in series [2] it was 1.5%; in series [3], 3%.

Turning to Glycereth-18 [reference compound], in series [4], the antimicrobial activity entry is reported as “no activity”. The “Minimum Inhibitory Concentration (MIC)” value in series [1], in series [2] and in series [3] was “>=6%” each time.

On to Glycereth-40 Ethylhexanoate, for which the “Minimum Inhibitory Concentration (MIC)” value in series [1] worked out at 3%; in series [2] it was 1.5%; in series [3], 3%.

For Glycereth-18 Pelargonate, the “Minimum Inhibitory Concentration (MIC)” value in series [1] is recorded as “>=6%”; in series [2], 1.5%; in series [3], “>=6%”.

As to Glycereth-18 Ethylhexanoate [G-18-O], the values for the antimicrobial activity result in series [4] and in series [4] (listed as G-18-0) were “effective antimicrobial agent” and “essentially equal to that of glyceryl caprylate”, respectively. For the same compound, the “dermal response score (6-point scale)” value in series [5] (forearm of 51 human volunteers, occlusive, all panelists) came to 0. Also, the skin irritation entry in series [5] (intimate contact with skin, occlusive conditions) is “totally non-irritating”. Also, the values for the water solubility entry in series [6], in series [6] (listed as G-18-0) and in series [6] (listed as Glycereth-18 ethylhexanoate) were “very water soluble”, “substantially water-soluble” and “very water-soluble”, respectively. The “Minimum Inhibitory Concentration (MIC)” value in series [1] is reported as 0.6%; in series [2], 1.5%; in series [3], 0.6%. Also, the “visible growth on agar plates” value in series [1] and in series [3] was 50% each time. In addition, the HLB value entry in series [7] was “greater than 10”.

Take `CCCCCCCC(=O)OCC(O)CO` (centres unmarked) [Glyceryl Caprylate, reference compound]: the oil solubility entry in series [6] is “substantially oil soluble”. The “visible growth on agar plates” value in series [1] and in series [3] was 50% throughout.

In the case of Glycereth-18 Laurate, the “Minimum Inhibitory Concentration (MIC)” value in series [1] is reported as 0.6%; in series [2], “>=6%”; in series [3], 0.6%.

On to Propylene Glycol-18 Ethylhexanoate, for which the figures for the “Minimum Inhibitory Concentration (MIC)” value in series [1], in series [2] and in series [3] were “>=6%”, 1.5% and “>=6%”, respectively.

As for Glycereth-20 Ethylhexanoate, the “Minimum Inhibitory Concentration (MIC)” value in series [1], in series [2] and in series [3] was 3% in each case.

Glycereth-18 Benzoate: the “Minimum Inhibitory Concentration (MIC)” value is listed as 3% in series [1], “>=6%” in series [2] and 3% in series [3].
